The results in this text go back to patent US8617604B2, “Pharmaceutical compositions with enhanced performance” (Bend Research, Inc., priority 2005, dated 2013).

Molecules are shown by their SMILES. Where two headings read alike, the source gives them in different places.

A short description of data set [1]: In vitro membrane permeation test (maximum flux of drug across membrane). The conditions noted are these: 100 μgA/mL; for Maximum Flux of Drug 5: Table 15, feed 0.5 wt % NaTC/POPC, permeate 60 wt % decanol in decane.
Source text: An Accurel® PP 1E microporous polypropylene membrane was obtained from Membrana GmbH (Wuppertal, Germany). The membrane was washed in isopropyl alcohol and rinsed in methanol in a sonicating bath for one minute at ambient temperature, and then allowed to air dry at ambient temperature. The feed side of the membrane was then plasma-treated to render it hydrophilic by placing a sample of the membrane in a plasma chamber. The atmosphere of the plasma chamber was saturated with water vapor at a pressure of 550 mtorr. A plasma was then generated using radio frequency (RF) power inductively coupled into the chamber via annular electrodes at a power setting of 50 Watts for 45 seconds. The contact angle of a drop of water placed on the surface of the plasma-treated membrane was about 40°. The contact angle of a drop of water placed on the permeate side of the same membrane was greater than about 110°.
A permeate reservoir was formed by capping the open end of a glass tube having an inside diameter of about 2 54 cm by gluing a sample of the plasma-treated membrane to the tube using an epoxy-based glue (LOCTITE® E-30CL HYSOL® from Henkel Loctite Corp, Rocky HUI, Conn.). The membrane was oriented so that its feed side was on the outside of the permeate reservoir and its permeate side was on the inside of the reservoir. The effective membrane area of the membrane capping the permeate reservoir was about 4.9 cm^2. The permeate reservoir was placed into a glass feed reservoir. The feed reservoir was equipped with a magnetic stir bar and the reservoir was placed on a stir plate and the stir rate was set to 100 rpm during the test. The apparatus was placed into a chamber maintained at 37° C. for the duration of the test.
To this was added 5 mL of an aqueous solution designed to model the fed state, consisting of a Phosphate Buffered Solution (PBS) containing 29.2 mM or 2 wt % sodium taurocholic acid and 5.6 mM of 1-palmitoyl-2-oleyl-sn-glycero-3-phosphocholine (NaTC/POPC). […] The feed solution was mixed using a vortex mixer for 1 minute. Before the membrane contacted the feed solution, 5 mL of 20 wt % decanol in decane was placed into the permeate reservoir. Time zero in the test was when the membrane was placed in contact with the feed solution. A 50 μL aliquot of the permeate solution was collected at 20, 40, 60, 90, 120, 180, 240, and 350 minutes. Samples were then diluted in 250 μL isopropyl alcohol and analyzed using HPLC.
The maximum flux of drug across the membrane (in units of μgA/cm^2-min) was determined by performing a least-squares fit to the data to obtain the maximum slope, multiplying the slope by the permeate volume (5 mL), and dividing by the membrane area (4.9 cm^2).
The maximum flux of drug across the membrane (in units of μgA/cm^2-min) was determined by estimating the tangent to the concentration versus time curve at time 0.
To this was added 5 mL of the Model Fasted Duodenum (MFD) solution consisting of Phosphate Buffered Saline (PBS) solution containing 7.3 mM sodium taurocholic acid and 1.4 mM of 1-palmitoyl-2-oleyl-sn-glycero-3-phosphocholine (0.5% NaTC/POPC). […] The feed solutions were each mixed using a vortex mixer for 1 minute. Before the membrane contacted the feed solutions, 5 mL of 20 wt % decanol in n-decane was placed into the permeate reservoir. Time zero in the test was when the membrane was placed in contact with the feed solution. […] Samples were then diluted in 250 μL isopropyl alcohol and analyzed using HPLC.
Data set [2] is described as follows: Aqueous solubility of the drugs. The conditions noted are these: aqueous medium (not specified further). Format: physicochemical.
Data set [3] in a line: Microcentrifuge dissolution test. It is filed as physicochemical.
The mark [4] stands for this setting: Table 18, Drug 1, PBS pH 6.5, 37° C., 1000 μgA/mL.
Setting [5] is: Table 20, Drug 1, microcentrifuge dissolution test described above.
Setting [6] is: Table 19, Drug 2, MFD solution, 1000 μgA/mL.

For `O=C1Cc2cc(CCN3CCN(c4nsc5ccccc45)CC3)c(Cl)cc2N1` [Control C5], in data set [1], the “Maximum Flux of Drug 5” value worked out at 0.099 μgA/cm^2-min.
`O=C1Cc2cc(CCN3CCN(c4nsc5ccccc45)CC3)c(Cl)cc2N1` [Control C6]: the “Maximum Flux of Drug 5” value in data set [1] amounted to 0.07 μgA/cm^2-min.
Take `O=C1Cc2cc(CCN3CCN(c4nsc5ccccc45)CC3)c(Cl)cc2N1` [Drug 4]: the solubility in data set [2] (free base form) is less than 0.1 µg/mL; in data set [2] (hydrochloride salt form), roughly 10 µg/mL.
For `O=C1Cc2cc(CCN3CCN(c4nsc5ccccc45)CC3)c(Cl)cc2N1` [Control C4], the “Maximum Drug Flux” value in data set [1] (Table 21, Drug 4, feed 0.5% NaTC/POPC (MFD), permeate 60 wt % decanol in n-decane) was determined as 0.16 μgA/cm^2-min.
Regarding `CCOC(=O)N1c2ccc(C(F)(F)F)cc2[C@@H](N(Cc2cc(C(F)(F)F)cc(C(F)(F)F)c2)C(=O)OC)C[C@H]1CC` [Control C1], the AUC90 is less than 88 min · μgA/mL in data set [3] (Table 11, Drug 1, PBS pH 6.5, 37° C., area under the curve from 0 to 90 minutes); less than 100 min · μgA/mL in data set [3] (setting [4]); less than 100 min · μgA/mL in data set [3] (setting [5]). Also, the MDC90 in data set [3] (Table 11, Drug 1, PBS pH 6.5, 37° C., maximum drug concentration between 0 and 90 minutes) is listed as less than 1 μgA/mL; in data set [3] (setting [4]), less than 1 μgA/mL; in data set [3] (setting [5]), less than 1 μgA/mL. In addition, the “Maximum Flux of Drug 1” value reads like this: (120 μg/mL) 0.091 μgA/cm^2-min; (120 μgA/mL) 0.08 μgA/cm^2-min.
`CCOC(=O)N1c2ccc(C(F)(F)F)cc2[C@@H](N(Cc2cc(C(F)(F)F)cc(C(F)(F)F)c2)C(=O)OC)C[C@H]1CC` [Drug 1, [2R,4S]-4[(3,5-bis-trifluoromethyl-benzyl)-methoxycarbonyl-amino]-2-ethyl-6-trifluoromethyl-3,4-dihydro-2H-quinoline-1-carboxylic acid ethyl ester] had a solubility in data set [2] of less than 0.1 µg/mL.
In data set [3] (setting [6]), `O=C(NOCC1CC1)c1ccc(F)c(F)c1Nc1ccc(I)cc1Cl` [Control C2] displayed an AUC90 of 4200 min · μgA/mL and an MDC90 of 101 μgA/mL.

Usually solubility stands for how much of the substance goes into solution per volume.
